Experimental data: EP4603105A1, “PHARMACEUTICAL COMPOSITION CONTAINING CYCLIC COMPOUND HAVING SELECTIVE KRAS INHIBITORY EFFECT AGAINST HRAS AND NRAS” (CHUGAI SEIYAKU KABUSHIKI KAISHA, priority 2022, dated 2024)
pIC50: −log10 of the molar value. *1 amine or outer side, *2 acyl side, *3 side chain or, on linkers, in order; H or OH if unused. Where a SMILES comes first, the peptide text is derived from it. Bridges are numbered along the chain shown (N, C = ends). [ ]: non-standard residue; d: D form. The star is where a group is joined. hPhe(3-Cl-4-CF3) = N[C@@H](CCc1ccc(C(F)(F)F)c(Cl)c1)C(=O)O; NPrPhe(4-CF3) = CCCN[C@@H](Cc1ccc(C(F)(F)F)cc1)C(=O)O; NEtAsp = CCN([C@@H](CC(=O)[*:3])C(=O)[*:2])[*:1]; NMeGly(cPent) = CN[C@H](C(=O)O)C1CCCC1; NMeD = CN[C@@H](CC(=O)O)C(=O)O; NMeL = CN[C@@H](CC(C)C)C(=O)O; Morpholide = C1CN(*)CCO1; Ac5c = NC1(C(=O)O)CCCC1; NEtG = CCNCC(=O)O; Sar = CNCC(=O)O

Columns and labels:
[1] = molecular target: GDP-bound NRAS wild-type protein (Homo sapiens, UniProt P01111); assay: Binding to NRAS by surface plasmon resonance (SPR), KD and KD ratio to KRAS; conditions: ratio of the KD value with respect to GDP-bound NRAS wild-type protein to the KD value with respect to KRAS
GDP-bound NRAS wild-type protein, sequence (P01111 whole entry): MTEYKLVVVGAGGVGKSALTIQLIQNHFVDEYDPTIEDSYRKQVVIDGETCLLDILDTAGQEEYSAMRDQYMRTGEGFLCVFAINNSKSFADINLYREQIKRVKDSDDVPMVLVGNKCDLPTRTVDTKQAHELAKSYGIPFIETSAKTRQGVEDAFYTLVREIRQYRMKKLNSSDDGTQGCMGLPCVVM
Procedure, shortened: (§1)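 Recombinant RAS proteins bearing a biotinylated Avi tag and loaded with GDP served as the captured ligand, recaptured fresh every cycle. Binding responses were referenced to an uncoated surface and a buffer-only blank cycle. Dissociation constants were obtained by 1:1 model fitting at 30°C.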

HRAS wild-type protein = HRAS wild-type protein (Homo sapiens, UniProt P01112); assay: Binding to HRAS by surface plasmon resonance (SPR), KD and KD ratio to KRAS; conditions: ratio of the KD value with respect to HRAS wild-type protein to the KD value with respect to KRAS
HRAS wild-type protein, sequence (P01112 whole entry): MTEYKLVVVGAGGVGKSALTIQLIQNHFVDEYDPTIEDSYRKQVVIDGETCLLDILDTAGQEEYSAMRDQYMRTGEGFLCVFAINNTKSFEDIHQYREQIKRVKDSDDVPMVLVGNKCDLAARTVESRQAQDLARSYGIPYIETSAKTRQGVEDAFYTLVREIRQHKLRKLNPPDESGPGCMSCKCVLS
Procedure, shortened: as §1

[2] = test system: human lung cancer strain NCI-H441; type: cell-based
Procedure, shortened: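 Signal came from […] measured per well once the reagent was added. Beforehand, cells were cultured at 37°C and 5% carbon dioxide on a compound series serially diluted in dimethyl sulfoxide.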

| SMILES | NRAS /KRAS [1] | HRAS /KRAS (HRAS wild-type protein) | pIC50 [2] |
| --- | --- | --- | --- |
| CCCN1C(=O)CN(CC)C(=O)CNC(=O)[C@H]([C@@H](C)CC)NC(=O)[C@H](CC(C)C)N(C)C(=O)C[C@@H](C(=O)N2CCOCC2)N(C)C(=O)[C@H](C2CCCC2)N(C)C(=O)C2(CCCC2)NC(=O)[C@@H]2CCCN2C(=O)[C@H](CCc2ccc(C(F)(F)F)c(Cl)c2)NC(=O)CN(C)C(=O)[C@@H]1Cc1ccc(C(F)(F)F)cc1 [PP1968] ([NMeL]IG[NEtG][NPrPhe(4-CF3)][Sar][hPhe(3-Cl-4-CF3)]P[Ac5c][NMeGly(cPent)][NMeD]-Morpholide; lactam N-11) | C (A compound having a KD ratio of 0.1 or more and less than 3 is denoted as C) | C (A compound having a KD ratio of 0.1 or more and less than 3 is denoted as C) | 7.87 |
| CCCN1C(=O)CN(C)C(=O)CNC(=O)[C@H]([C@@H](C)CC)NC(=O)[C@H](CC(C)C)N(C)C(=O)C[C@@H](C(=O)N2CCOCC2)N(C)C(=O)[C@H](C2CCCC2)N(C)C(=O)C2(CCCC2)NC(=O)[C@@H]2CCCN2C(=O)[C@H](CCc2ccc(C(F)(F)F)c(Cl)c2)NC(=O)CN(CC)C(=O)[C@@H]1Cc1ccc(C(F)(F)F)cc1 [PP1969] ([NMeL]IG[Sar][NPrPhe(4-CF3)][NEtG][hPhe(3-Cl-4-CF3)]P[Ac5c][NMeGly(cPent)][NMeD]-Morpholide; lactam N-11) | B (a compound having 3 or more and less than 10 is denoted as B) | C (A compound having a KD ratio of 0.1 or more and less than 3 is denoted as C) | 7.13 |
| CCCN1C(=O)CN(C)C(=O)CNC(=O)[C@H]([C@@H](C)CC)NC(=O)[C@H](CC(C)C)N(C)C(=O)C[C@@H](C(=O)N2CCOCC2)N(CC)C(=O)[C@H](C2CCCC2)N(C)C(=O)C2(CCCC2)NC(=O)[C@@H]2CCCN2C(=O)[C@H](CCc2ccc(C(F)(F)F)c(Cl)c2)NC(=O)CN(C)C(=O)[C@@H]1Cc1ccc(C(F)(F)F)cc1 [PP1970] ([NMeL]IG[Sar][NPrPhe(4-CF3)][Sar][hPhe(3-Cl-4-CF3)]P[Ac5c][NMeGly(cPent)][NEtAsp]-Morpholide; lactam N-11) | B (a compound having 3 or more and less than 10 is denoted as B) | B (a compound having 3 or more and less than 10 is denoted as B) | 7.77 |
| CCCN1C(=O)CN(C)C(=O)[C@H](C)NC(=O)[C@H]([C@@H](C)CC)NC(=O)[C@H](CC(C)C)N(C)C(=O)C[C@@H](C(=O)N2CCOCC2)N(C)C(=O)[C@H](C2CCCC2)N(C)C(=O)C2(CCCC2)NC(=O)[C@@H]2CCCN2C(=O)[C@H](CCc2ccc(C(F)(F)F)c(Cl)c2)NC(=O)CN(C)C(=O)[C@@H]1Cc1ccc(C(F)(F)F)cc1 [PP1971] ([NMeL]IA[Sar][NPrPhe(4-CF3)][Sar][hPhe(3-Cl-4-CF3)]P[Ac5c][NMeGly(cPent)][NMeD]-Morpholide; lactam N-11) | B (a compound having 3 or more and less than 10 is denoted as B) | B (a compound having 3 or more and less than 10 is denoted as B) | 7.42 |
| CC[C@H](C)[C@@H]1NC(=O)[C@H](CCOC)N(C)C(=O)C[C@@H](C(=O)N(C)CC)N(C)C(=O)[C@H](C2CCCC2)N(C)C(=O)C2(CC(C)(C)C2)NC(=O)[C@@H]2C[C@H](C)CN2C(=O)[C@H](CCc2cc(F)c(C(F)(F)F)c(F)c2)NC(=O)CN(C)C(=O)[C@H](Cc2ccc(C(F)(F)F)cc2)N2CC/C=C\C[C@@H](C2=O)N(C)C(=O)CN(C)C1=O [PP1972] | A (a compound having 10 or more and less than 20 is denoted as A) | A (a compound having 10 or more and less than 20 is denoted as A) | 7.88 |
| CCCOC[C@H]1C(=O)N[C@@H]([C@@H](C)CC)C(=O)N(C)CC(=O)N(C)[C@H]2C/C=C\CCN(C2=O)[C@@H](Cc2ccc(C(F)(F)F)cc2)C(=O)N(C)CC(=O)N[C@@H](CCc2ccc(C(F)(F)F)c(OC)c2)C(=O)N2C[C@H](OCC)C[C@H]2C(=O)NC2(CC(C)(C)C2)C(=O)N(C)[C@@H](C2CCCC2)C(=O)N(C)[C@H](C(=O)N(C)CC)CC(=O)N1C [PP1973] | A (a compound having 10 or more and less than 20 is denoted as A) | B (a compound having 3 or more and less than 10 is denoted as B) | 8.06 |
| CCCN(C)C(=O)[C@@H]1CC(=O)N(C)[C@@H](CCOC)C(=O)N[C@@H]([C@@H](C)CC)C(=O)N(C)CC(=O)N(C)[C@H]2C/C=C\CCN(C2=O)[C@@H](Cc2ccc(C(F)(F)F)cc2)C(=O)N(C)CC(=O)N[C@@H](CCc2cc(F)c(C(F)(F)F)c(F)c2)C(=O)N2C[C@@H](C)C[C@H]2C(=O)NC2(CC(C)(C)C2)C(=O)N(C)[C@@H](C2CCCC2)C(=O)N1C [PP1974] | A (a compound having 10 or more and less than 20 is denoted as A) | A (a compound having 10 or more and less than 20 is denoted as A) | 7.30 |
| CCCN(C)C(=O)[C@@H]1CC(=O)N(C)[C@@H](CCOC)C(=O)N[C@@H]([C@@H](C)CC)C(=O)N(C)CC(=O)N(C)[C@H]2C/C=C\CCN(C2=O)[C@@H](Cc2ccc(C(F)(F)F)cc2)C(=O)N(C)CC(=O)N[C@@H](CCc2ccc(C(F)(F)F)c(OC)c2)C(=O)N2C[C@H](OCC)C[C@H]2C(=O)NC2(CC(C)(C)C2)C(=O)N(C)[C@@H](C2CCCC2)C(=O)N1C [PP1975] | A (a compound having 10 or more and less than 20 is denoted as A) | A (a compound having 10 or more and less than 20 is denoted as A) | 7.87 |
| CC[C@H](C)[C@@H]1NC(=O)[C@H](C(C)C)N(C)C(=O)C[C@@H](C(=O)N(C)CC)N(C)C(=O)[C@H](C2CCCC2)N(C)C(=O)C2(CC(C)(C)C2)NC(=O)[C@@H]2C[C@H](C)CN2C(=O)[C@H](CCc2cc(F)c(C(F)(F)F)c(F)c2)NC(=O)CN(C)C(=O)[C@H](Cc2ccc(C(F)(F)F)cc2)N2CC/C=C\C[C@@H](C2=O)N(C)C(=O)CN(C)C1=O [PP1976] | AA (a compound having 20 or more is denoted as AA) | A (a compound having 10 or more and less than 20 is denoted as A) | 7.04 |
| CCO[C@@H]1C[C@H]2C(=O)NC3(CC(C)(C)C3)C(=O)N(C)[C@@H](C3CCCC3)C(=O)N(C)[C@H](C(=O)N(C)CC)CC(=O)N(C)[C@@H](C(C)C)C(=O)N[C@@H]([C@@H](C)CC)C(=O)N(C)CC(=O)N(C)[C@H]3C/C=C\CCN(C3=O)[C@@H](Cc3ccc(C(F)(F)F)cc3)C(=O)N(C)CC(=O)N[C@@H](CCc3ccc(C(F)(F)F)c(OC)c3)C(=O)N2C1 [PP1977] | AA (a compound having 20 or more is denoted as AA) | A (a compound having 10 or more and less than 20 is denoted as A) | 7.69 |
| CCO[C@@H]1C[C@H]2C(=O)NC3(CC(C)(C)C3)C(=O)N(C)[C@@H](C3CCCC3)C(=O)N(C)[C@H](C(=O)N(C)C)CC(=O)N(C)[C@@H](C(C)C)C(=O)N[C@@H]([C@@H](C)CC)C(=O)N(C)CC(=O)N(C)[C@H]3C/C=C\CCN(C3=O)[C@@H](Cc3ccc(C(F)(F)F)cc3)C(=O)N(C)CC(=O)N[C@@H](CCc3ccc(C(F)(F)F)c(OC)c3)C(=O)N2C1 [PP1979] | AA (a compound having 20 or more is denoted as AA) | A (a compound having 10 or more and less than 20 is denoted as A) | 7.90 |
| CCO[C@@H]1C[C@H]2C(=O)NC3(CC(C)(C)C3)C(=O)N(C)[C@@H](C3CCCC3)C(=O)N(C)[C@H](C(=O)N(C)CC)CC(=O)N(C)[C@@H](C3CC3)C(=O)N[C@@H]([C@@H](C)CC)C(=O)N(C)CC(=O)N(C)[C@H]3C/C=C\CCN(C3=O)[C@@H](Cc3ccc(C(F)(F)F)cc3)C(=O)N(C)CC(=O)N[C@@H](CCc3ccc(C(F)(F)F)c(OC)c3)C(=O)N2C1 [PP1981] | A (a compound having 10 or more and less than 20 is denoted as A) | A (a compound having 10 or more and less than 20 is denoted as A) | 7.68 |
| CCCN(C)C(=O)[C@@H]1CC(=O)N(C)[C@@H](C2CC2)C(=O)N[C@@H]([C@@H](C)CC)C(=O)N(C)CC(=O)N(C)[C@H]2C/C=C\CCN(C2=O)[C@@H](Cc2ccc(C(F)(F)F)cc2)C(=O)N(C)CC(=O)N[C@@H](CCc2ccc(C(F)(F)F)c(OC)c2)C(=O)N2C[C@H](OCC)C[C@H]2C(=O)NC2(CC(C)(C)C2)C(=O)N(C)[C@@H](C2CCCC2)C(=O)N1C [PP1983] | AA (a compound having 20 or more is denoted as AA) | A (a compound having 10 or more and less than 20 is denoted as A) | 7.69 |
| CC[C@H](C)[C@@H]1NC(=O)[C@H](C2CCC2)N(C)C(=O)C[C@@H](C(=O)N(C)CC)N(C)C(=O)[C@H](C2CCCC2)N(C)C(=O)C2(CC(C)(C)C2)NC(=O)[C@@H]2C[C@H](C)CN2C(=O)[C@H](CCc2cc(F)c(C(F)(F)F)c(F)c2)NC(=O)CN(C)C(=O)[C@H](Cc2ccc(C(F)(F)F)cc2)N2CC/C=C\C[C@@H](C2=O)N(C)C(=O)CN(C)C1=O [PP1984] | A (a compound having 10 or more and less than 20 is denoted as A) | A (a compound having 10 or more and less than 20 is denoted as A) | 7.29 |
